Consider 2 molecules from ChEMBL document CHEMBL3886595, “Compounds and compositions for inhibiting the activity of ABL1, ABL2 and BCR-ABL1” (2016).

The target of assay [1] is T1, Tyrosine-protein kinase ABL1 (Homo sapiens, UniProt P00519). Put plainly: Radio ABL1 (64-515) Assay: For determination of ABL kinase activity, the radiometric filter-binding assay was used. The assay was performed by mixing 10 uL of the compound pre-diluted with 10 uL of ATP (20 uM ATP with 0.1 uCi [γ-33P]-ATP) with the phospho-acceptor peptide poly[Ala6Glu2LysHBr5Tyr1]=polyAEKY) in 20 mM Tris/HCl pH 7.5, 1 mM DTT, 10 mM MgCl2, 0.01 mM Na3VO4, 50 mM NaCl. 10 uL of ….
Description: 10 uL of enzyme (ranging between 5 nM to 20 nM) was added to initiate the reaction. Pre-incubation of enzyme with compounds (when stated) was performed by exposing the enzyme to compounds prior to addition of the substrate mixture (ATP and/or peptide substrate). […] Filter-plates were washed 3x with 0.5% H3PO4, followed by addition of 30 uL scintillation cocktail (Microscint, Perkin Elmer) per well and then analysed in a TopCount NXT scintillation counter (Perkin Elmer).

The target of assay [2] is T1, Tyrosine-protein kinase ABL1. Put plainly: Caliper ABL : The assay plates were prepared by addition of 50 nL per well of compound solution in 90% DMSO. The kinase reactions were started by stepwise addition of 4.5 uL per well of peptide/ATP-solution (50 mM HEPES, pH 7.5, 1 mM DTT, 0.02% BSA, 0.6% DMSO, 10 mM beta-glycerophosphate, and 10 uM sodium orthovanadate, 20 mM MgCl2, 2 mM MnCl2, 4 uM ATP, 4 uM peptide (FITC-Ahx-EAIYAAPFAKKK-NH2)) ….

T1 sequence (P00519 whole entry): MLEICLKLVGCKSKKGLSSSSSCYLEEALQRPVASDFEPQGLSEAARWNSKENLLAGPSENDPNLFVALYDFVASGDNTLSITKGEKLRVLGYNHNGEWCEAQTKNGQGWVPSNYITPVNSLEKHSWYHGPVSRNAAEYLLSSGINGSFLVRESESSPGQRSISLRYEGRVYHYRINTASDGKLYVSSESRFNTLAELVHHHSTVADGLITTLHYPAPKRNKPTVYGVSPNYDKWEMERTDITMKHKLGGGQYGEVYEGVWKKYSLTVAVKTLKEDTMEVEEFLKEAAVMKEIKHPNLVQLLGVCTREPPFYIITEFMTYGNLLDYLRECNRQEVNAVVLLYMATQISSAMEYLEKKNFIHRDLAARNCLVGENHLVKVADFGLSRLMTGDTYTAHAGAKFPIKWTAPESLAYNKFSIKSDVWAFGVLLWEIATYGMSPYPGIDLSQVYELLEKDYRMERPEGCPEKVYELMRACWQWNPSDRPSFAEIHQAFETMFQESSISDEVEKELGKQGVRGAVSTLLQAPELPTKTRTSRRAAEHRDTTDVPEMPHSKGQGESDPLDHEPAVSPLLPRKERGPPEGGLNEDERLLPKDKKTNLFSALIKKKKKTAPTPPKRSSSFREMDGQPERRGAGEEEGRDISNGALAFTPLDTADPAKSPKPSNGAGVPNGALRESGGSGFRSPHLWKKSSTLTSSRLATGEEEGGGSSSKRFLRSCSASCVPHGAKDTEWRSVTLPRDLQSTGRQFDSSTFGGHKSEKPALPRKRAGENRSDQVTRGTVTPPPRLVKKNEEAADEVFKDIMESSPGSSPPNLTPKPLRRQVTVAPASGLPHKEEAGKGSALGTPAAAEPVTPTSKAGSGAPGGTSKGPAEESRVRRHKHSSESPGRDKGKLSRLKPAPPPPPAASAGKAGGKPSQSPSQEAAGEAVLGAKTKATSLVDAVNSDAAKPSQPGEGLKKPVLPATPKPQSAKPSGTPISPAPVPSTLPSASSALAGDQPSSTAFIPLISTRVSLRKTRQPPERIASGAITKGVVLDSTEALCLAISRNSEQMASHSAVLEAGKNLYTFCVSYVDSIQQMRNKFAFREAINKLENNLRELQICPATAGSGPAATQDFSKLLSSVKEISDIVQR

What is called IC50 is the concentration at which inhibition is half-maximal. Low values mean higher potency, high ones lower potency. `Cc1ccc(-c2cc(C(=O)Nc3ccc(OC(F)(F)F)cc3)cnc2N2CC[C@H](N)C2)cn1`: in assay [1], the IC50 turned out to be 7 nM.
Consider `O=C(Nc1ccc(OC(F)(F)F)cc1)c1cnc(N2CC[C@H](CO)C2)c(-c2cncc(F)c2)c1`, for which the IC50 in assay [2] was found to be 0.6 nM; in assay [1], 6.3 nM.
